The text below walks through data of ChEMBL document CHEMBL2157872, “Trimeric purine nucleoside phosphorylase: exploring postulated one-third-of-the-sites binding in the transition state” (Bioorg Med Chem, 2012).

Assay [1] deals with T1, Purine nucleoside phosphorylase (Bos taurus, UniProt P55859).
T1 sequence (P55859 whole entry): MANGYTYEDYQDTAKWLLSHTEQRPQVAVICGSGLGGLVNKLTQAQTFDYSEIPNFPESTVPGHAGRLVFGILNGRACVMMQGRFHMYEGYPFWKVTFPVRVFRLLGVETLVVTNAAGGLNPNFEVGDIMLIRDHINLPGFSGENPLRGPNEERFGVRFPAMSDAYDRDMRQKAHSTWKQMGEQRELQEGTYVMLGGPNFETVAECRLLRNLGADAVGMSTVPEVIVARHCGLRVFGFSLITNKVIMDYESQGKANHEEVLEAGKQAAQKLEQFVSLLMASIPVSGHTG

The target of assay [2] is T2, Purine nucleoside phosphorylase (Bos taurus, UniProt P55859, F200W). In words: Binding affinity to calf recombinant PNP Phe200Trp mutant expressed in Escherichia coli BL21 (DE3) by competitive binding fluorimetric analysis in presence of DFPP-DG.
For assay [3], the target named is T3, Purine nucleoside phosphorylase (Bos taurus) (UniProt P55859).
T3 sequence (whole entry): T1 sequence (P55859 whole entry)
Description: Inhibition of bovine PNP using 7-methylguanosine as substrate by spectrophotometric based coupled assay

Assay [4] deals with T1, Purine nucleoside phosphorylase. In words: Binding affinity to calf recombinant PNP expressed in Escherichia coli BL21 (DE3) by fluorimetric titration analysis.
Assay [5] has as its target T2, Purine nucleoside phosphorylase.
Description: Binding affinity to calf recombinant PNP Phe200Trp mutant expressed in Escherichia coli BL21 (DE3) by fluorimetric titration analysis
The target in assay [6] is Purine nucleoside phosphorylase (Bos taurus, UniProt P55859, F159W). In words: Binding affinity to calf recombinant PNP Phe159Trp mutant expressed in Escherichia coli BL21 (DE3) by fluorimetric titration analysis.
Assay [7] has as its target T1, Purine nucleoside phosphorylase. In words: Binding affinity to calf recombinant PNP expressed in Escherichia coli BL21 (DE3) by isothermal titration calorimetry/ fluorimetric titration analysis. On the technique in general: Isothermal titration calorimetry measures the heat released or taken up as one component is titrated into another.

T2 sequence (P55859 whole entry F200W): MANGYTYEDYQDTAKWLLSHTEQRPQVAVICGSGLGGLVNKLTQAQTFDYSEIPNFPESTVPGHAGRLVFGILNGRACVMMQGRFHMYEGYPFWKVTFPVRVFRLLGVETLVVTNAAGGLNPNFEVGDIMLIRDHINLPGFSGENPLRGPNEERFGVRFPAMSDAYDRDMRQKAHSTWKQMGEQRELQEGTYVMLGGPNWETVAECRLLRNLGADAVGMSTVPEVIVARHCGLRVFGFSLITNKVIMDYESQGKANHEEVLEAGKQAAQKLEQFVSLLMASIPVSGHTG
Purine nucleoside phosphorylase (Bos taurus, UniProt P55859, F159W), sequence (P55859 whole entry F159W): as the sequence (P55859 whole entry F200W) above, with F159W, W200F counted along it

`O=c1[nH]cnc2c([C@@H]3N[C@H](CO)[C@@H](O)[C@H]3O)c[nH]c12` [FORODESINE] registered a Kd in assay [1] of 0.023 nM.

Regarding `C[C@@H](Cn1cnc2c(N)nc(N)nc21)OCP(=O)(O)O`, the Kd in assay [2] stood at 860 nM. Besides, the Kieq in assay [3] was determined as 6 µM.

For `Nc1nc2cc[nH]c2c(=O)[nH]1`, the values for the Kd in assay [4] and in assay [1] were 170 nM and 160 nM, respectively. In addition, the Kieq in assay [3] turned out to be 7.4 µM.

As for `O=c1[nH]cnc2nc[nH]c12`, the Kieq in assay [3] came out at 2.5 µM.

`Nc1nc2nc[nH]c2c(=O)[nH]1` [GUANINE]: the Kd in assay [4] was determined as 160 nM; in assay [5] it was 160 nM; in assay [1], 120 nM; in assay [6], 3300 nM.

With `Nc1nc2c(CNCCC(F)(F)P(=O)(O)O)c[nH]c2c(=O)[nH]1`, the equilibrium dissociation constant (Kd) in assay [7] came out at 3.6 nM. Also, in assay [3], the Kieq is 0.0068 µM.

Consider `Nc1nc2[nH]cnc2c(=O)[nH]1`, for which the Kieq in assay [3] turned out to be 4 µM.

Usually Kd stands for the constant that tells how readily two partners part at equilibrium.
